pIC50: −log10 of the molar value. Structures can show the parent of a compound that is named as a salt.

For the first experiment, the target named is recombinant HCV NS5B (HCV RNA-dependent RNA polymerase) (Hepatitis C virus genotype 1b, UniProt P26663). Kind of experiment: biochemical. The settings on record: HCV polymerase activity, list of compounds of Example 27; read-out: IC50 (polymerase activity).
Sequence of recombinant HCV NS5B (HCV RNA-dependent RNA polymerase) (P26663 2420-3010 limits assumed): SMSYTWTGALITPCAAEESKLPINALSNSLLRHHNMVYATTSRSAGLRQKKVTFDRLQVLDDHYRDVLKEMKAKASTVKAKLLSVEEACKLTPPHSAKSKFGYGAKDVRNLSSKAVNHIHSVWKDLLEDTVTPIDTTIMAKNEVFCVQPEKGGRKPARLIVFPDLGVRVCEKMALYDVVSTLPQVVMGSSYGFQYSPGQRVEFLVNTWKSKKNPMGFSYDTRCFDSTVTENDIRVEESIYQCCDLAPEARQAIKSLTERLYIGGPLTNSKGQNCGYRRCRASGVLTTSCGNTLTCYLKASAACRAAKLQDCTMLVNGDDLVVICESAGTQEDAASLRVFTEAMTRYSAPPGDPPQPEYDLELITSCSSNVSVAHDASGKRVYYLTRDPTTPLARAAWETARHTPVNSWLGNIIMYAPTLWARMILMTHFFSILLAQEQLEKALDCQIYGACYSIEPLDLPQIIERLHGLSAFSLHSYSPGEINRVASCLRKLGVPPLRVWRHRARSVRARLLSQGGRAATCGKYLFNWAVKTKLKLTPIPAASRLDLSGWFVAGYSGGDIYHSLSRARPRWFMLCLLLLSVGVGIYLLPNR
What is called pIC50 is −log10 of the IC50, conventionally taken in molar units. Regarding `CC(C)CC(=O)N(Cc1cccc(Cl)c1)c1cc(-c2ccccc2)sc1C(=O)O` [Compound 479, 3-[(3-CHLORO-BENZYL)-(3-METHYL- BUTYRYL)-AMINO]-5-PHENYL- THIOPHENE-2-CARBOXYLIC ACID], the pIC50 was > 5.30.

Consider `Cc1ccc(C(=O)N(c2cc(-c3ccccc3)sc2C(=O)O)C(C)C)c(C(N)=O)c1` [Compound 474, 3-[(2-CARBAMOYL-4-METHYL-BENZOYL)- ISOPROPYL-AMINO]-5-PHENYL- THIOPHENE-2-CARBOXYLIC ACID], for which the pIC50 is 4.70 to 5.30.

For `COc1cc(C)c(S(=O)(=O)N2CC(C)=CCC2C(=O)N(c2cc(-c3ccccc3)sc2C(=O)O)C(C)C)c(C)c1C` (stereo not drawn) [Compound 541, 3-(ISOPROPYL-[1-(4-METHOXY-2,3,6- TRIMETHYL-BENZENESULFONYL)-5- METHYL-1,2,3,6-TETRAHYDRO- PYRIDINE-2-CARBONYL]-AMINO)-5- PHENYL-THIOPHENE-2-CARBOXYLIC ACID], the pIC50 is 4.70 to 5.30.

For the molecule `O=C(O)c1sc(-c2ccccc2)cc1N(CC1CCNCC1)C(=O)c1ccccc1Cl` [Compound 520, 3-[(2-CHLORO-BENZOYL)-PIPERIDIN-4- YLMETHYL-AMINO]-5-PHENYL- THIOPHENE-2-CARBOXYLIC ACID], the pIC50 is > 5.30.

`Cc1cc(S(=O)(=O)Nc2cc(-c3ccccc3)sc2C(N)=O)c(C)cc1Cl` [Compound 580, 3-(4-CHLORO-2,5 DIMETHYL- BENZENESULFONYLAMINO)-5-PHENYL- THIOPHENE-2-CARBOXYLIC ACID AMIDE]: the pIC50 was > 5.30.

Turning to `CC(=O)N(Cc1ccccc1)c1cc(-c2ccccc2)sc1C(=O)O` [Compound 450, 3-(ACETYL-BENZYL-AMINO)-5-PHENYL- THIOPHENE-2-CARBOXYLIC ACID], the pIC50 was > 5.30.

Regarding `Cc1cccc(CN(C(=O)C(C)C)c2cc(-c3ccccc3)sc2C(=O)O)c1` [Compound 465, 3-[ISOBUTYRYL-(3-METHYL-BENZYL)- AMINO]-5-PHENYL-THIOPHENE-2- CARBOXYLIC ACID], the pIC50 was 4.70 to 5.30.

As to `O=C(O)c1sc(-c2ccccc2)cc1N(Cc1ccc(Cl)cc1)C(=O)CC1CCCC1` [Compound 463, 3-[(4-CHLORO-BENZYL)-(2- CYCLOPENTYL-ACETYL)-AMINO]-5- PHENYL-THIOPHENE-2-CARBOXYLIC ACID], the pIC50 is > 5.30.

Consider `N=C(N)N1CCC(N(C(=O)c2ccc(Cl)cc2Cl)c2cc(-c3ccccc3)sc2C(=O)O)CC1` [Compound 506, 3-[(1-CARBAMIMIDOYL-PIPERIDIN-4-YL)- (2,4-DICHLORO-BENZOYL)-AMINO]-5- PHENYL-THIOPHENE-2-CARBOXYLIC ACID], for which the pIC50 is > 5.30.

With `Cc1ccc(C(=O)N(c2cc(-c3cccc(C(F)(F)F)c3)sc2C(=O)O)C(C)C)c(O)c1` [Compound 428, 3-[(2-HYDROXY-4-METHYL-BENZOYL)- ISOPROPYL-AMINO]-5-(3- TRIFLUOROMETHYL-PHENYL)- THIOPHENE-2-CARBOXYLIC ACID], the pIC50 was 4.70 to 5.30.

For the molecule `CC1CCC(C(=O)N(CC2CCNCC2)c2cc(-c3ccccc3)sc2C(=O)O)CC1` (stereo not drawn) [Compound 544, 4-([(2-CARBOXY-5-PHENYL-THIOPHEN-3- YL)-(4-METHYL- CYCLOHEXANECARBONYL)-AMINO]- METHYL)-PIPERIDINIUM; TRIFLUORO- ACETATE], the pIC50 is > 5.30.

For `CC(C)N(C(=O)C12CC3CC(CC(C3)C1)C2)c1cc(-c2ccccc2)sc1C(=O)O` [Compound 424, 3-[(ADAMANTANE-1-CARBONYL)- ISOPROPYL-AMINO]-5-PHENYL- THIOPHENE-2-CARBOXYLIC ACID], the pIC50 was < 4.70.

Turning to `C=CCN(C(=O)Cc1ccc(OC)cc1)c1cc(-c2ccccc2)sc1C(=O)O` [Compound 491, 3-{ALLYL-[2-(4-METHOXY-PHENYL)- ACETYL]-AMINO}-5-PHENYL-THIOPHENE- 2-CARBOXYLIC ACID], the pIC50 was < 4.70.

In the case of `CC(=O)c1ccc(-c2cc(N(C(=O)C3CCC(C)CC3)C(C)C)c(C(=O)O)s2)cc1` (stereo not drawn) [Compound 460, 5-(4-ACETYL-PHENYL)-3-[ISOPROPYL-(4- METHYL-CYCLOHEXANECARBONYL)- AMINO]-THIOPHENE-2-CARBOXYLIC ACID], the pIC50 was > 5.30.

Turning to `CCCC(=O)N(Cc1ccccc1Cl)c1cc(-c2ccccc2)sc1C(=O)O` [Compound 447, 3-[BUTYRYL-(2-CHLORO-BENZYL)- AMINO]-5-PHENYL-THIOPHENE-2- CARBOXYLIC ACID], the pIC50 is > 5.30.

On to `CC(C1CCNCC1)N(C(=O)c1ccc(Cl)cc1Cl)c1cc(-c2ccccc2)sc1C(=O)O` (stereo not drawn) [Compound 529, 3-[(2,4-DICHLORO-BENZOYL)-(1- PIPERIDIN-4-YL-ETHYL)-AMINO]-5- PHENYL-THIOPHENE-2- CARBOXYLIC ACID; COMPOUND WITH TRIFLUORO-ACETIC ACID], for which the pIC50 was > 5.30.

Regarding `CC1(C)OCC(N(C(=O)c2ccc(Cl)cc2Cl)c2cc(-c3ccccc3)sc2C(=O)O)CO1` [Compound 535, 3-[(2,4-DICHLORO-BENZOYL)-(2,2- DIMETHYL-[1,3]DIOXAN-5-YL)-AMINO]-5- PHENYL-THIOPHENE-2-CARBOXYLIC ACID], the pIC50 was > 5.30.

Take `NC1CCC(N(C(=O)c2ccc(Cl)cc2Cl)c2cc(-c3ccccc3)sc2C(=O)O)CC1` (stereo not drawn) [Compound 528, 4-[(2-CARBOXY-5-PHENYL-THIOPHEN-3- YL(-(2,4-DICHLORO-BENZOYL)-AMINO]- CYCLOHEXYL-AMMONIUM; TRIFLUORO- ACETATE]: the pIC50 was > 5.30.

Still in this experiment, the particulars now being: related polymerase activity (Example 27 list); read-out: IC50.
`Cc1cc(S(=O)(=O)N(Cc2cccc(I)c2)c2cc(-c3ccccc3)sc2C(=O)O)c(C)cc1Cl` [Compound 1, 3-[(4-CHLORO-2,5-DIMETHYL-BENZENESULFONYL)-(3-IODO-BENZYL)-AMINO]-5-PHENYL-THIOPHENE-2-CARBOXYLIC ACID]: the pIC50 was 4.70 to 5.30.

On to `CC(C)N(C(=O)c1ccc(Cl)cc1Cl)c1cc(-c2ccc([S+](C)[O-])cc2)sc1C(=O)O` (stereo not drawn) [Compound 374, 3-[(2,4-DICHLORO-BENZOYL)- ISOPROPYL-AMINO]-5-(4- METHANESULFINYL-PHENYL)- THIOPHENE-2-CARBOXYLIC ACID], for which the pIC50 was > 5.30.

Turning to `O=C(O)c1sc(-c2ccccc2)cc1N(C(=O)c1ccc(Cl)cc1Cl)C1CC1` [Compound 333, 3-[CYCLOPROPYL-(2,4-DICHLORO- BENZOYL)-AMINO]-5-PHENYL- THIOPHENE-2-CARBOXYLIC ACID], the pIC50 is > 5.30.

Take `CN(C(=O)c1sccc1Cl)c1cc(-c2ccccc2)sc1C(=O)O` [Compound 186, 3-[(3-CHLORO-THIOPHENE-2-CARBONYL)-METHYL-AMINO]-5-PHENYL-THIOPHENE-2-CARBOXYLIC ACID]: the pIC50 was 4.70 to 5.30.

In the case of `Cc1cccc(N2CCN(C(=O)Nc3cc(-c4ccccc4)sc3C(=O)O)CC2)n1` [Compound 182, 3-{[4-(6-METHYL-PYRIDIN-2-YL)-PIPERAZINE-1-CARBONYL]-AMINO}-5-PHENYL-THIOPHENE-2-CARBOXYLIC ACID HYDROCHLORIDE], the pIC50 was 4.70 to 5.30.

On to `Cc1ccc(C(=O)N(C)c2cc(-c3ccc(C#N)cc3)sc2C(=O)O)cc1` [Compound 193, 5-(4-CYANO-PHENYL)-3-[METHYL-(4-METHYL-BENZOYL)-AMINO]-THIOPHENE-2-CARBOXYLIC ACID], for which the pIC50 is 4.70 to 5.30.

For the molecule `CC(C)c1ccc(S(=O)(=O)Nc2cc(-c3ccccc3)sc2C(=O)O)cc1` [Compound 43, 3-(4-ISOPROPYL-BENZENESULFONYLAMINO)-5-PHENYL-THIOPHENE-2-CARBOXYLIC ACID], the pIC50 is 4.70 to 5.30.

Turning to `Cc1ccccc1S(=O)(=O)Nc1cc(-c2ccc(C(F)(F)F)cc2)sc1C(=O)O` [Compound 88, 3-(TOLUENE-2-SULFONYLAMINO)-5-(4-TRIFLUOROMETHYL-PHENYL)-THIOPHENE-2-CARBOXYLIC ACID], the pIC50 is > 5.30.

For `Cc1ccccc1S(=O)(=O)Nc1cc(-c2ccc(N)cc2)sc1C(=O)O` [Compound 165, 5-(4-AMINO-PHENYL)-3-(TOLUENE-2-SULFONYLAMINO)-THIOPHENE-2-CARBOXYLIC ACID], the pIC50 is 4.70 to 5.30.

Take `CC(C)N(C(=O)c1ccc(Cl)cc1Cl)c1cc(-c2ccccc2)sc1C(=O)O` [Compound 149, 3-[(2,4-DICHLORO-BENZOYL)-ISOPROPYL-AMINO]-5-PHENYL-THIOPHENE-2-CARBOXYLIC ACID]: the pIC50 is > 5.30.

`CCCC(=O)N(C)c1cc(-c2ccccc2)sc1C(=O)O` [Compound 385, 3-(BUTYRYL-METHYL-AMINO)-5-PHENYL- THIOPHENE-2-CARBOXYLIC ACID]: the pIC50 was 4.70 to 5.30.

As for `Cc1ccccc1S(=O)(=O)Nc1cc(-c2ccc3c(c2)OCO3)sc1C(=O)O` [Compound 202, 5-BENZO[1,3]DIOXOL-5-YL-3-(TOLUENE-2-SULFONYLAMINO)-THIOPHENE-2-CARBOXYLIC ACID], the pIC50 is > 5.30.

With `Cc1ccc(S(=O)(=O)Nc2cc(-c3ccc(CO)cc3)sc2C(=O)O)c(C)c1` [Compound 320, 3-(2,4-DIMETHYL- BENZENESULFONYLAMINO)-5-(4- HYDROXYMETHYL-PHENYL)- THIOPHENE-2-CARBOXYLIC ACID], the pIC50 is > 5.30.

Consider `CC(C)N(C(=O)c1ccc(C(F)(F)F)cc1)c1cc(-c2ccccc2)sc1C(=O)O` [Compound 243, 3-[ISOPROPYL-(4-TRIFLUOROMETHYL-BENZOYL)-AMINO]-5-PHENYL-THIOPHENE-2-CARBOXYLIC ACID], for which the pIC50 was > 5.30.

Consider `Cc1ccccc1S(=O)(=O)Nc1cc(-c2cnn(S(=O)(=O)N(C)C)c2)sc1C(=O)O` [Compound 163, 5-(1-DIMETHYLSULFAMOYL-1H-PYRAZOL-4-YL)-3-(TOLUENE-2-SULFONYLAMINO)-THIOPHENE-2-CARBOXYLIC ACID], for which the negative logarithm of the IC50 (pIC50) was 4.70 to 5.30.

On to `Cc1ccc(C(=O)N(Cc2cccc(C(F)(F)F)c2)c2cc(-c3ccccc3)sc2C(=O)O)cc1` [Compound 330, 3-[(4-METHYL-BENZOYL)-(3- TRIFLUOROMETHYL-BENZYL)-AMINO]-5- PHENYL-THIOPHENE-2-CARBOXYLIC ACID], for which the pIC50 is > 5.30.

For `Cc1cccc(-c2cc(NS(=O)(=O)c3ccccc3C)c(C(=O)O)s2)c1` [Compound 64, 3-(TOLUENE-2-SULFONYLAMINO)-5-M-TOLYL-THIOPHENE-2-CARBOXYLIC ACID], the pIC50 is > 5.30.

As to `CC(=O)Nc1nc(C)c(S(=O)(=O)Nc2cc(-c3ccccc3)sc2C(=O)O)s1` [Compound 139, 3-(2-ACETYLAMINO-4-METHYL-THIAZOLE-5-SULFONYLAMINO)-5-PHENYL-THIOPHENE-2-CARBOXYLIC ACID], the pIC50 was 4.70 to 5.30.
